The results in this text go back to patent publication US20240327381A1, “Compounds and Compositions for Selective Degradation of Engineered Proteins” (Celgene Corporation, priority 2023, published 2024).

In test [1] the target is T1, IKZF1 ZNF2_ZNF3 Q1F degron-tagged CD19 CAR (Homo sapiens, UniProt Q13422, Q146F).
T1 construct: ZNF2_ZNF3 Q1F degron (GERPFFCNQCGASFTQKGNLLRHIKLHSGEKPFKCHLCNYACRRRDALTGHLRTHS); fused on or other part: anti-CD19 scFv, CD28 transmembrane domain, 4-1BB costimulatory domain, CD3 zeta signaling domain (the CAR that carries the degron), and Nluc
As to the kind of experiment: Degradation of Q1F degron-tagged CD19 CAR in Jurkat cells (flow cytometry of CAR levels). Format: cell-based. Conditions: for DC50: Jurkat cells expressing CD19 CAR tagged with IKZF1 ZNF2_ZNF3 Q1F, 18 hours at 37° C., CAR levels normalized to untreated cells, read-out: Q1F Jurkat IC50; for Dmax: read-out: Q1F Jurkat-YMax. The procedure, abridged:
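Jurkat cells were lentivirally transduced with an anti-CD19 scFv/CD28 TM/4-1BB/CD3ζ CAR tagged with an IKZF1 ZNF2_ZNF3 Q1F degron–Nluc, then treated with compound titrations for 18 h at 37 °C. CAR surface levels were stained (20 min, 4 °C), read by flow cytometry and normalised to untreated cells. EC50 came from a four-parameter logistic fit; Ymin is the minimum % CAR remaining.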

The next test concerns the target T2, Helios (Homo sapiens, UniProt Q9UKS7).
T2 construct: endogenous in cells; host or cells: Jurkat cells, CRISPR/Cas9 knock-in of HiBit at the IKZF2 locus
Put plainly: Helios degradation in Jurkat/Helios/HiBit cells (Nano-Glo luminescence). Conditions: 18 hr, read-out: Helios Jurkat Hibit IC50. Type of test: cell-based. The procedure, abridged:
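Jurkat cells carrying CRISPR-knocked-in C-terminal HiBit-tagged endogenous IKZF2 were treated with compound in DMEM/10% FCS (10,000 cells/well) for 18 h at 37 °C. HiBit signal was read by Nano-Glo luminescence after 30 min at RT. EC50 for degradation came from a four-parameter logistic fit, with Ymax as % protein degraded.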
(With HiBiT, luminescence reflects the tagged protein that the partner subunit can reach.)

[2] abbreviates: Ymax is the % protein degraded, Jurkat cells expressing Q1F degron-tagged CD19 CAR, 18 hours.

Where two headings read alike, the source gives them in different places.

T2 sequence (Q9UKS7 whole entry): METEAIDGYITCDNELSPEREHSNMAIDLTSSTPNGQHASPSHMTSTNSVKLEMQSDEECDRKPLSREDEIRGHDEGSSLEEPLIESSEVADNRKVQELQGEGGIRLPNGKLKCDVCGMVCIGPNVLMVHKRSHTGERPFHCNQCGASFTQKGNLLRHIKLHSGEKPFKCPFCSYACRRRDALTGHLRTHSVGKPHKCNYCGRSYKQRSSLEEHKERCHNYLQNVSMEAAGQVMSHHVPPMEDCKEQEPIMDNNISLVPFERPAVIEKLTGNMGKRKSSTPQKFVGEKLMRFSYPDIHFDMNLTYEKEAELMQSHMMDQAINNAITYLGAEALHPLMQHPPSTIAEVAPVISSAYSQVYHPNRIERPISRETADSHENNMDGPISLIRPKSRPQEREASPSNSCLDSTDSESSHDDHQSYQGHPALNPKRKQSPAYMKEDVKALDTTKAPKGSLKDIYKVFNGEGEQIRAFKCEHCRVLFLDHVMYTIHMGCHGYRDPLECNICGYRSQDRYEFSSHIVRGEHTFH
T2 sequence (Q96SW2 whole entry, further chain): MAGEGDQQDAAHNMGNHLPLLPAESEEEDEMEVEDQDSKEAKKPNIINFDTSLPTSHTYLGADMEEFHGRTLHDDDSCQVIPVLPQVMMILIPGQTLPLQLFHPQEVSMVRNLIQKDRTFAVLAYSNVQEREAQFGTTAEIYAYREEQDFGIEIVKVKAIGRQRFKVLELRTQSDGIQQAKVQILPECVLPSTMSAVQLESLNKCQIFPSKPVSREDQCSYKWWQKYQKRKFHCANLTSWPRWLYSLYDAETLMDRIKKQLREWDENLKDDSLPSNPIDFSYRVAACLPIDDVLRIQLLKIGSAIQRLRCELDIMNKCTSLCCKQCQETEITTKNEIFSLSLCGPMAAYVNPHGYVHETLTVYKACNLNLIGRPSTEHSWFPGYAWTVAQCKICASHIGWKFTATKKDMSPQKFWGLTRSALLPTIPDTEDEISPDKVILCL
T2 sequence (Q16531 whole entry partner): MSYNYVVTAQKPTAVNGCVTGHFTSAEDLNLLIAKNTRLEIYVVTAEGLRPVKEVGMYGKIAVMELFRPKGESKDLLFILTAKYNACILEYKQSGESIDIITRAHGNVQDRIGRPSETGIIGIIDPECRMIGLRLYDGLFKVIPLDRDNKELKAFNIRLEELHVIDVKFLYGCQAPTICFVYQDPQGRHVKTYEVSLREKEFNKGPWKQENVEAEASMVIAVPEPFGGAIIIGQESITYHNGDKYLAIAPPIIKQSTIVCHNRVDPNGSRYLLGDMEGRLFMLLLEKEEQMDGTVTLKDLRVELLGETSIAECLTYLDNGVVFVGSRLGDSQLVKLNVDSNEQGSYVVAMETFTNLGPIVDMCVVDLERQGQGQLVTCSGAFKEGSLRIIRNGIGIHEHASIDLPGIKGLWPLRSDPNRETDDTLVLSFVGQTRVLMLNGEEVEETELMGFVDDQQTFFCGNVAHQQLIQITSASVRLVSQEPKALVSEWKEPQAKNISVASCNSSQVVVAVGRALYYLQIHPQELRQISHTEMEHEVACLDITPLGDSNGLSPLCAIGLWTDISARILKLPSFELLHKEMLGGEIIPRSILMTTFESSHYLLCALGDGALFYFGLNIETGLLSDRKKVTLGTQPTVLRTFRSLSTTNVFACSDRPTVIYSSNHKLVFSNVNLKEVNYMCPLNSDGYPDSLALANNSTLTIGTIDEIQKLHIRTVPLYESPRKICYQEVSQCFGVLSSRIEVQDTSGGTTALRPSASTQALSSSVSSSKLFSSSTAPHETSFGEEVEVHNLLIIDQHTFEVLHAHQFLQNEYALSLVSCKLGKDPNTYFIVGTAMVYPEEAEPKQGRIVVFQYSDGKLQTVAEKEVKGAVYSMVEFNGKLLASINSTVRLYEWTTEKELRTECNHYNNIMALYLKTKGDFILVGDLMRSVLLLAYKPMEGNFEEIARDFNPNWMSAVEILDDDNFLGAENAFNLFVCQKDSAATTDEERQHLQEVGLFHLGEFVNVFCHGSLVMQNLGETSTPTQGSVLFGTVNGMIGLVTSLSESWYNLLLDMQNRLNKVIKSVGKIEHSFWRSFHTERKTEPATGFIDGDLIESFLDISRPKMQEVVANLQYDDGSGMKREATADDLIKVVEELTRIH
T1 sequence (Q13422 whole entry Q146F, the tested form may be a part): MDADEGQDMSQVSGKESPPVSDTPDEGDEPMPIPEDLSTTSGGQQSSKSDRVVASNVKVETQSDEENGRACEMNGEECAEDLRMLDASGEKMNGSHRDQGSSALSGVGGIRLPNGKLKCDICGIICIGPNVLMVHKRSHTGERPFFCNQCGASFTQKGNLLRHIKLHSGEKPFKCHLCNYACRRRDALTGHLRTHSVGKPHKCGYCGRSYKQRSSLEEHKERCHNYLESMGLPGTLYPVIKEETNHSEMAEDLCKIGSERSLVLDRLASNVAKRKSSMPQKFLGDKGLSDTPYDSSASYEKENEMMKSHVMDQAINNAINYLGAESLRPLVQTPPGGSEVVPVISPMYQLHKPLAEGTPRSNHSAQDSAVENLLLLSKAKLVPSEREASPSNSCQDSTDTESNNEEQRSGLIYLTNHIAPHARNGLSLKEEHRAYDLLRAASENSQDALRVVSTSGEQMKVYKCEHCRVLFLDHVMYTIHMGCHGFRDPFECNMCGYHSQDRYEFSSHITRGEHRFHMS

As to `O=C1CCC(N2Cc3c(cc(F)c(C4CCN(Cc5ccc6c(c5)CCC6)CC4)c3F)C2=O)C(=O)N1` (stereo not drawn) [Compound 60, 3-(5-(1-((2,3-dihydro-1H-inden-5-yl)methyl)piperidin-4-yl)-4,6-difluoro-1-oxoisoindolin-2-yl)piperidine-2,6-dione], the DC50 in test [1] is 0.691 nM; on Helios it was at least 10000 nM. The Dmax in test [1] (setting [2]) came to 91.8%.

In the case of `Cc1ccc(CN2CCC(c3cc4c(cc3F)C(=O)N(C3CCC(=O)NC3=O)C4)CC2)cc1` (stereo not drawn) [Compound 84, 3-(6-fluoro-5-(1-(4-methylbenzyl)piperidin-4-yl)-1-oxoisoindolin-2-yl)piperidine-2,6-dione], the DC50 in test [1] is 2.1 nM; at Helios it was at least 10000 nM. In test [1] (setting [2]), the Dmax was 90.3%.

In the case of `O=C1CCC(N2Cc3c(cc(F)c(C4(O)CCN(Cc5nc6ccccc6s5)CC4)c3F)C2=O)C(=O)N1` (stereo not drawn) [Compound 57, 3-(5-(1-(benzo[d]thiazol-2-ylmethyl)-4-hydroxypiperidin-4-yl)-4,6-difluoro-1-oxoisoindolin-2-yl)piperidine-2,6-dione], the DC50 is 101 nM in test [1] and at least 10000 nM on Helios. In test [1] (setting [2]), the Dmax was 63.2%.

Consider `O=C1CCC(N2Cc3c(cc(F)c(C(=O)Nc4nccn4C4CCC4)c3F)C2=O)C(=O)N1` (stereo not drawn) [Compound 74, N-(1-cyclobutyl-1H-imidazol-2-yl)-2-(2,6-dioxopiperidin-3-yl)-4,6-difluoro-1-oxoisoindoline-5-carboxamide], for which the DC50 in test [1] was 108 nM; on Helios, at least 10000 nM. The Dmax in test [1] (setting [2]) came out at 74.9%.

Consider `O=C1CCC(N2Cc3c(cc(F)c(C4(O)CCN(Cc5ccc6nc[nH]c6c5)CC4)c3F)C2=O)C(=O)N1` (stereo not drawn) [Compound 44, 3-[5-[1-(3H-benzimidazol-5-ylmethyl)-4-hydroxy-4-piperidyl]-4,6-difluoro-1-oxo-isoindolin-2-yl]piperidine-2,6-dione], for which the results for the DC50 (in test [1]; on Helios) were 120 nM and at least 10000 nM, respectively. For the same compound, in test [1] (setting [2]), the Dmax was found to be 82.1%.

As for `O=C1CCC(N2Cc3c(cc(F)c(C(=O)N4CCc5c(Cl)cccc5C4)c3F)C2=O)C(=O)N1` (stereo not drawn) [Compound 71, 3-[5-(5-chloro-3,4-dihydro-1H-isoquinoline-2-carbonyl)-4,6-difluoro-1-oxo-isoindolin-2-yl]piperidine-2,6-dione], the DC50 is 23.7 nM in test [1] and at least 10000 nM on Helios. Further, in test [1] (setting [2]), the Dmax came out at 95.7%.

Turning to `Cc1nc(CN2CCC(c3c(F)cc4c(c3F)CN(C3CCC(=O)NC3=O)C4=O)CC2)c(C)o1` (stereo not drawn) [Compound 56, 3-(5-(1-((2,5-dimethyloxazol-4-yl)methyl)piperidin-4-yl)-4,6-difluoro-1-oxoisoindolin-2-yl)piperidine-2,6-dione], the DC50 in test [1] is 0.571 nM; at Helios it was at least 10000 nM. For the same compound, in test [1] (setting [2]), the Dmax is 84.4%.

Consider `O=C1CCC(N2Cc3cc(C4CCN(Cc5ccc6ncsc6c5)CC4)c(F)cc3C2=O)C(=O)N1` (stereo not drawn) [Compound 81, 3-(5-(1-(benzo[d]thiazol-6-ylmethyl)piperidin-4-yl)-6-fluoro-1-oxoisoindolin-2-yl) piperidine-2,6-dione], for which the DC50 in test [1] is 3.06 nM; on Helios it was at least 10000 nM. Moreover, the Dmax in test [1] (setting [2]) stood at 93%.

Turning to `O=C1CCC(N2Cc3c(cc(F)c(CNC(=O)c4cc5ccccn5c4)c3F)C2=O)C(=O)N1` (stereo not drawn) [Compound 69, N-[[2-(2,6-dioxo-3-piperidyl)-4,6-difluoro-1-oxo-isoindolin-5-yl]methyl]indolizine-2-carboxamide], the figures for the DC50 (in test [1]; on Helios) were 35.2 nM and at least 10000 nM, respectively. In addition, the Dmax in test [1] (setting [2]) worked out at 53.9%.

On to `O=C1CCC(N2Cc3c(cc(F)c(C4CCN(Cc5ccc(-c6ccccc6)o5)CC4)c3F)C2=O)C(=O)N1` (stereo not drawn) [Compound 5, 3-(4,6-difluoro-1-oxo-5-(1-((5-phenylfuran-2-yl)methyl)piperidin-4-yl)isoindolin-2-yl)piperidine-2,6-dione], for which the DC50 in test [1] is 5.7 nM; at Helios, at least 10000 nM. Further, in test [1] (setting [2]), the Dmax is 85.8%.

Turning to `C[C@@H](CO)CN1CCC(c2c(F)cc3c(c2F)CN(C2CCC(=O)NC2=O)C3=O)CC1` (mixture of isomers) [Compound 119, rac-3-(4,6-difluoro-5-(1-((R)-3-hydroxy-2-methylpropyl)piperidin-4-yl)-1-oxoisoindolin-2-yl)piperidine-2,6-dione], the DC50 in test [1] is 8.65 nM; at Helios, at least 10000 nM. In test [1] (setting [2]), the Dmax was determined as 80.7%.

`O=C1CCC(N2Cc3c(cc(F)c(C4CCN(CC5CCCCC5)CC4)c3F)C2=O)C(=O)N1` (stereo not drawn) [Compound 67, 3-(5-(1-(cyclohexylmethyl)piperidin-4-yl)-4,6-difluoro-1-oxoisoindolin-2-yl)piperidine-2,6-dione]: the DC50 in test [1] was 0.563 nM; at Helios, at least 10000 nM. In addition, in test [1] (setting [2]), the Dmax was 89%.

As to `O=C1CCC(N2Cc3cc(C4CCN(Cc5ccc6[nH]ccc6c5)CC4)c(F)cc3C2=O)C(=O)N1` (stereo not drawn) [Compound 89, 3-(5-(1-((1H-indol-5-yl)methyl)piperidin-4-yl)-6-fluoro-1-oxoisoindolin-2-yl)piperidine-2,6-dione], the results for the DC50 (in test [1]; at Helios) were 2.67 nM and at least 10000 nM, respectively. Besides, in test [1] (setting [2]), the Dmax amounted to 94.2%.

For `Cc1cc(-c2cc3c(cc2F)C(=O)N(C2CCC(=O)NC2=O)C3)nc(N)c1C` (stereo not drawn) [Compound 34, 3-(5-(6-amino-4,5-dimethylpyridin-2-yl)-6-fluoro-1-oxoisoindolin-2-yl) piperidine-2,6-dione], the results for the DC50 (in test [1]; on Helios) were 7.43 nM and at least 10000 nM, respectively. Also, in test [1] (Jurkat, 18 h), the Dmax came to 91.7%.

For the compound `O=C1CCC(N2Cc3c(cc(F)c(C4CCN(Cc5ccc6c(c5)OC(F)(F)O6)CC4)c3F)C2=O)C(=O)N1` (stereo not drawn) [Compound 59, 3-(5-(1-((2,2-difluorobenzo[d][1,3]dioxol-5-yl)methyl)piperidin-4-yl)-4,6-difluoro-1-oxoisoindolin-2-yl)piperidine-2,6-dione], the DC50 was 0.01 nM in test [1] and at least 10000 nM at Helios. For the same compound, the Dmax in test [1] (setting [2]) was 92.2%.

For the compound `Cc1ccc(CN2CCC(c3c(F)cc4c(c3F)CN(C3CCC(=O)NC3=O)C4=O)CC2)cc1` (stereo not drawn) [Compound 45, 3-(4,6-difluoro-5-(1-(4-methylbenzyl)piperidin-4-yl)-1-oxoisoindolin-2-yl)piperidine-2,6-dione], the DC50 in test [1] is 0.343 nM; on Helios it was at least 10000 nM. In test [1] (setting [2]), the Dmax was determined as 90.6%.

`O=C1CCC(N2Cc3c(cc(F)c(C4CCN(CC5CCCC5)CC4)c3F)C2=O)C(=O)N1` (stereo not drawn) [Compound 112, 3-(5-(1-(cyclopentylmethyl)piperidin-4-yl)-4,6-difluoro-1-oxoisoindolin-2-yl)piperidine-2,6-dione]: the DC50 is 3.23 nM in test [1] and at least 10000 nM at Helios. Moreover, the Dmax in test [1] (setting [2]) was 84.6%.

Turning to `O=C1CCC(N2Cc3c(cc(F)c(C4CCN(Cc5cccnc5)CC4)c3F)C2=O)C(=O)N1` (stereo not drawn) [Compound 107, 3-(4,6-difluoro-1-oxo-5-(1-(pyridin-3-ylmethyl)piperidin-4-yl)isoindolin-2-yl)piperidine-2,6-dione], the DC50 was 2.1 nM in test [1] and at least 10000 nM at Helios. The Dmax in test [1] (setting [2]) came out at 89.7%.

`O=C1CCC(N2Cc3c(cc(F)c(C4CCN(CCCOc5ccccc5)CC4)c3F)C2=O)C(=O)N1` (stereo not drawn) [Compound 118, 3-(4,6-difluoro-1-oxo-5-(1-(3-phenoxypropyl)piperidin-4-yl)isoindolin-2-yl)piperidine-2,6-dione]: the DC50 in test [1] is 2.86 nM; at Helios it was at least 10000 nM. Also, the Dmax in test [1] (setting [2]) amounted to 83%.

With `O=C1CCC(N2Cc3c(cc(F)c(C4CCN(Cc5nc6ccccc6s5)CC4)c3F)C2=O)C(=O)N1` (stereo not drawn) [Compound 58, 3-(5-(1-(benzo[d]thiazol-2-ylmethyl)piperidin-4-yl)-4,6-difluoro-1-oxoisoindolin-2-yl)piperidine-2,6-dione], the figures for the DC50 (in test [1]; on Helios) were 10.7 nM and at least 10000 nM, respectively. The Dmax in test [1] (setting [2]) stood at 86.3%.

As to `CN(C)c1ccc(CN2CCC(c3c(F)cc4c(c3F)CN(C3CCC(=O)NC3=O)C4=O)CC2)cc1` (stereo not drawn) [Compound 110, 3-(5-(1-(4-(dimethylamino)benzyl)piperidin-4-yl)-4,6-difluoro-1-oxoisoindolin-2-yl)piperidine-2,6-dione], the DC50 was 1.12 nM in test [1] and at least 10000 nM at Helios. For the same compound, the Dmax in test [1] (setting [2]) worked out at 90.5%.

With `O=C1CCC(N2Cc3c(cc(F)c(C(=O)N4CCc5cc(F)c(F)cc5C4)c3F)C2=O)C(=O)N1` (stereo not drawn) [Compound 72, 3-[5-(6,7-difluoro-3,4-dihydro-1H-isoquinoline-2-carbonyl)-4,6-difluoro-1-oxo-isoindolin-2-yl]piperidine-2,6-dione], the figures for the DC50 (in test [1]; at Helios) were 21.2 nM and at least 10000 nM, respectively. In addition, the Dmax in test [1] (setting [2]) stood at 92.5%.

Turning to `O=C1CCC(N2Cc3cc(C4CCN(Cc5ccc6scnc6c5)CC4)c(F)cc3C2=O)C(=O)N1` (stereo not drawn) [Compound 86, 3-(5-(1-(benzo[d]thiazol-5-ylmethyl)piperidin-4-yl)-6-fluoro-1-oxoisoindolin-2-yl)piperidine-2,6-dione], the DC50 in test [1] was 1.94 nM; at Helios, at least 10000 nM. In addition, the Dmax in test [1] (setting [2]) turned out to be 92.1%.
